Read-outs that look alike come from different tables or passages of the source.

For test [1], the target named is T1, JHDM1A (Homo sapiens, UniProt Q9Y2K7).
T1 construct: purchased BPS BioScience (via AMSBio, UK)
T1 sequence (Q9Y2K7 1-1162): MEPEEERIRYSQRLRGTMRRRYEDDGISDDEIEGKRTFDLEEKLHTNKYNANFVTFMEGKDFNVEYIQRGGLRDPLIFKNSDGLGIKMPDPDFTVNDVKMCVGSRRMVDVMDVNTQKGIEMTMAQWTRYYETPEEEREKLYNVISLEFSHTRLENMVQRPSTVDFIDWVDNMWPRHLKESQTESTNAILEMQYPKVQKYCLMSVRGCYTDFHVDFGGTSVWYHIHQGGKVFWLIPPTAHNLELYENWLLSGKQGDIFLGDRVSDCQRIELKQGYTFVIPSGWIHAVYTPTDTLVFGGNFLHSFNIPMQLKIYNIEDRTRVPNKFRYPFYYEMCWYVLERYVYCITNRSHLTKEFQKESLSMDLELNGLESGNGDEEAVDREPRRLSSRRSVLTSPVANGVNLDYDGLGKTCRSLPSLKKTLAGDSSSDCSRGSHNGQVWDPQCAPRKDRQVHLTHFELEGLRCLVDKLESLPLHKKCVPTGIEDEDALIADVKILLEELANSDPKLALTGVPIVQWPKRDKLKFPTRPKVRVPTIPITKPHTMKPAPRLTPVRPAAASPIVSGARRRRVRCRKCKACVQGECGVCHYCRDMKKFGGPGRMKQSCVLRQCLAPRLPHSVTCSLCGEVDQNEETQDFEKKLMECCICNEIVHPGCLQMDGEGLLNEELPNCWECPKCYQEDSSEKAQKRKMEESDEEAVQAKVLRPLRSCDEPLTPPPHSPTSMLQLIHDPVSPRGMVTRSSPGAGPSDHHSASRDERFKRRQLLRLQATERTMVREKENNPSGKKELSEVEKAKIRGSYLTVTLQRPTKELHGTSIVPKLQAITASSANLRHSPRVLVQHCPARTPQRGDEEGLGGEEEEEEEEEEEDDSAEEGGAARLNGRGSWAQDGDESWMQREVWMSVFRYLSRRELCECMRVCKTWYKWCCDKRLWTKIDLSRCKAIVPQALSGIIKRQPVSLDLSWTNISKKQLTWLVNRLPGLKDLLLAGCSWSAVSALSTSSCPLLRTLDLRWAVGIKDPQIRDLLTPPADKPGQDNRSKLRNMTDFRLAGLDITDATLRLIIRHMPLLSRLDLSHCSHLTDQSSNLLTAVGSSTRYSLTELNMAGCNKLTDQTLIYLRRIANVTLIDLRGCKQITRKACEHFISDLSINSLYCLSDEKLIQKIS
Kind of test: JHDM1A FLT protease protection assay. The class given is biochemical. To be noted: peptide 10 1 μM, JHDM1A 150 nM, 5 h; Endo-LysC up to 120 min. The procedure: The assay was performed in a 20 μl volume in a 384-well black microplate and contained peptide 10 (1 μM) and JHDM1A enzyme (150 nM) in assay buffer (50 mM Tris, pH 7.4, 100 μM sodium ascorbate, 10 μM ammonium ferrous sulfate, 100 μM α-ketoglutarate, 0.01% Tween-20). Control wells containing peptide only were also included. After 5 h incubation at room temperature, 10 μl of Endo-LysC (30 nM) was added to the wells and the plate incubated at room temperature for up to 120 min. FLTs were then measured in triplicate on a NanoTaurus plate reader.
Assays were performed in a 384-well microplate at room temperature with an assay volume of 20 μl per well. To wells containing recombinant JHDM1A enzyme in assay buffer (10 μl) was added peptide 10 in assay buffer (10 μl). Two sets of control wells containing peptide 10 only were included. The plate was shaken and then sealed with a coverslip. The final concentration of JHDM1A in the assay was 150 nM and 1 μM for peptide 10. After incubation at room temperature for 5 h, Endo-LysC (10 μl in assay buffer; final concentration 10 nM) was added to assay wells and one set of control wells. To the other set of control wells was added 10 μl of assay buffer. Following incubation at room temperature for 120 min, the microplate was centrifuged at 500 rpm for 1 min and FLTs measured. All measurements were performed in triplicate.

The target in test [2] is T2, EZH2/EED/SUZ12/RbAp48/AEBP2 complex (Homo sapiens, UniProt Q15910). The following applies: read-out: KM (app) for SAM; peptide 20 (1 μM), 100 ng/well EZH2 complex, 5 h.
Description: The dependence of the EZH2 assay on SAM co-factor was investigated using peptide 20 as the substrate. The assay was performed in a 384-well hi-base microplate at room temperature for 5 h in assay buffer (10 μl) using 100 ng/well EZH2 complex and 1 μM substrate. SAM concentrations were varied from 100 μM-0.05 μM. On completion, Endo-LysC (4 nM) was added to each well and FLTs measured following a 15 min incubation period. The data was fitted to a variable slope dose-response model in Graph Pad Prism to determine the KM (app) for SAM.
For SAM titrations, to wells containing varying concentrations of SAM in assay buffer (2.5 μl) was added EZH2 complex in assay buffer (2.5 μl). Reactions were initiated by the addition of peptide 20 in assay buffer (5 μl). The plate was incubated at room temperature for 5 h and then 10 μl of Endo-LysC in assay buffer was added to each well. Following a further 15 min incubation at room temperature, FLTs were measured. All measurements were performed in triplicate.
Test [3] addresses T2, EZH2/EED/SUZ12/RbAp48/AEBP2 complex. The following applies: read-out: KM for SAM, literature value; literature (Sneeringer et al. 2010), radiometric assay format; cited from earlier work.
The target in test [4] is T3, G9a (Homo sapiens, UniProt Q96KQ7).
T3 construct: purchased Millipore; Abcam; BPS Bioscience (via AMSBio)
T3 sequence (Q96KQ7 1-1210): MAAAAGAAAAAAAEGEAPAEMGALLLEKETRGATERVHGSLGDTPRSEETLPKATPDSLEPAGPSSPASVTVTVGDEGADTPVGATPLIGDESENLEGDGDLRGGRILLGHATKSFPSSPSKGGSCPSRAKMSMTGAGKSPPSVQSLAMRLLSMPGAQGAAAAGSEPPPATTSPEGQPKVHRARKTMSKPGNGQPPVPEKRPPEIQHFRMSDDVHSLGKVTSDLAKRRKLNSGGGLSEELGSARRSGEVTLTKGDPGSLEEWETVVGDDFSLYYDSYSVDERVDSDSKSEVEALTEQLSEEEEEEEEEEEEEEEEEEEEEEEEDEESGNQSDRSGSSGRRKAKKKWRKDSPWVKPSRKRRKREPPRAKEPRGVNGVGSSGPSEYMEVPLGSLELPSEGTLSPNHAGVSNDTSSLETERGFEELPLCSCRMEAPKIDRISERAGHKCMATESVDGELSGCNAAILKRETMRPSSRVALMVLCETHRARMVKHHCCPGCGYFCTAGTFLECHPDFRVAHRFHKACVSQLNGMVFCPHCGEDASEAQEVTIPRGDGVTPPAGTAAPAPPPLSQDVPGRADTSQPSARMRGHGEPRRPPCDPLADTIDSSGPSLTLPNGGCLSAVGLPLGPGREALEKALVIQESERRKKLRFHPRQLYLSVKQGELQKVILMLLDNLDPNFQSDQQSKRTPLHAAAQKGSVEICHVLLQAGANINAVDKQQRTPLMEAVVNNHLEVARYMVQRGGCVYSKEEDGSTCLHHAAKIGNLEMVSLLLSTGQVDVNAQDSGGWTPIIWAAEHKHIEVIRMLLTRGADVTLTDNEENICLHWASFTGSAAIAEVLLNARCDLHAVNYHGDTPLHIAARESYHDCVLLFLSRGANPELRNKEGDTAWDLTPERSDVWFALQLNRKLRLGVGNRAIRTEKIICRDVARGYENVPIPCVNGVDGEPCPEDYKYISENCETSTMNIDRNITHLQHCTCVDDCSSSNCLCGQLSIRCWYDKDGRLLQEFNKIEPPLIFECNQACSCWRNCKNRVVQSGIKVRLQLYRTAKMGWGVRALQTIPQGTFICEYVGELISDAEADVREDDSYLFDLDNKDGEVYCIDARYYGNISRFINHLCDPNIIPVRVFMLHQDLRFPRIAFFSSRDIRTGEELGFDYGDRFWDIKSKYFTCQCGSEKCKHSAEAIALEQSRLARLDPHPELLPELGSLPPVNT
Kind of test: G9a FLT protease protection assay. The class given is biochemical. To be noted: peptides 4 and 9 as substrates (1 μM), 25 nM or 10 nM G9a, 2 h room temperature; read-out: Km (app) for SAM.
Description: Assays were performed at room temperature for 2 h and then FLTs measured using a NanoTaurus plate reader (Edinburgh Instruments Ltd.). Each well was then treated with 2 nM protease (Endo-LysC) (10 μl) and the plate incubated at room temperature for 60 min. The FLTs were then re-measured. Controls were included containing no G9a or no protease.
Peptides 4 and 9 were incubated with SAM (100 μM) and varying concentrations of G9a (Abcam) in 20 μl of assay buffer in a 384-well black microplate (Greiner). The assays were performed at room temperature for 2 h after which FLTs were measured as previously described. 2 nM Endo-LysC (10 μl per well) was then added and FLTs re-measured following 10 min and 60 min incubation with the protease.
The dependence of the G9a assay on SAM was investigated using both peptide 4 and 9 as substrates. Assays were performed in a 384-well microplate in assay buffer (20 μl) using either 25 nM or 10 nM G9a and 1 μM substrate. SAM concentrations were varied from 200 μM-0.4 μM and assays were incubated for 2 h at room temperature. On completion, Endo-LysC (2 nM) was added to each well and FLTs measured following a 10 min incubation period.
(§1) Reactions were performed in a 384-well microplate at room temperature for 2 h and stopped by the addition of Endo-LysC (2 nM).
Alternatively, assays were performed in a 384-well microplate at room temperature with an assay volume of 20 μl per well. To wells containing recombinant G9a enzyme in assay buffer (5 μl) was added peptide in assay buffer (10 μl). Reactions were started by the addition of SAM (5 μl). The plate was shaken and then sealed with a coverslip. […] The concentration of peptide was kept constant at 1 μM. Assays were started at different times and stopped together after 2 h by the addition of Endo-LysC (10 μl in assay buffer; final concentration 2 nM). Following incubation at room temperature for 10 min, the microplate was centrifuged at 500 rpm for 1 min and FLTs measured.
For inhibitor titrations, compounds (5 μl) were preincubated with G9a (5 μl) for 30 min at room temperature prior to addition of peptide (5 μl) and SAM (5 μl). Controls containing no SAM or no inhibitor were included.

The target in test [5] is T4, Set7/9 (Homo sapiens, UniProt Q8WTS6).
T4 construct: purchased BPS BioScience (via AMSBio, UK)
T4 sequence (Q8WTS6 1-366): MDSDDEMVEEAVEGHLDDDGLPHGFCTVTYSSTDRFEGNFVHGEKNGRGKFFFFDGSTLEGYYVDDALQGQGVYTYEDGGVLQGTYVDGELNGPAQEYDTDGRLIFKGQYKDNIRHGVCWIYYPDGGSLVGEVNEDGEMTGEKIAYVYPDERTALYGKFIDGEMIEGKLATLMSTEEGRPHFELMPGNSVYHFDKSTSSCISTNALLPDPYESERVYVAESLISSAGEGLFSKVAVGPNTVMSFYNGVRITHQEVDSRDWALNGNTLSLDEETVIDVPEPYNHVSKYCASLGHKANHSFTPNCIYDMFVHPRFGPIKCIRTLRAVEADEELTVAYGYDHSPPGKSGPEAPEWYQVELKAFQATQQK
Nature of the test: Set7/9 FLT protease protection assay. The class given is biochemical. The following applies: peptide 13 as substrate (1 μM), 25 nM Set7/9, 2 h; read-out: Km (app) for SAM.
Description: The assay was performed at room temperature and samples taken after 0 h, 2 h, and 6 h time intervals respectively.
10 μl of Endo-LysC (final concentration 2 nM) was added to each well and the plate incubated at room temperature for 15 mins before the FLTs were measured using a NanoTaurus plate reader. Peptide only controls were included at the same concentration for comparison.
Assays were performed in a 20 μl volume in a 384-well black microplate and contained peptide 12 (1 μM) and Set7/9 enzyme (100 nM, 50 nM, 25 nM, or 12.5 nM) in assay buffer. Reactions were stopped at regular intervals by the addition of 10 μl Endo-LysC (final concentration 2 nM). FLTs were measured following 15 min incubation with Endo-LysC at room temperature. All measurements were performed in duplicate using a NanoTaurus plate reader.
The dependence of the Set7/9 assay on SAM co-factor was investigated using peptide 13 as the substrate. The assay was performed in a 384-well microplate at room temperature for 2 h in assay buffer (20 μl) using 25 nM Set7/9 and 1 μM substrate. SAM concentrations were varied from 100 μM-1.7 nM. On completion, Endo-LysC (2 nM) was added to each well and FLTs measured following a 20 min incubation period.
as §1
Alternatively, assays were performed in a 384-well microplate at room temperature with an assay volume of 20 μl per well. To wells containing recombinant Set7/9 enzyme and peptide 12 or 13 in assay buffer (10 μl) was added SAM (10 μl) in assay buffer. Controls containing peptide only were also included. The plate was shaken and then sealed with a coverslip. The final concentration of Set7/9 in the assay varied between 100 nM and 12.5 nM whilst the concentration of peptide and SAM were kept constant at 1 μM and 100 μM respectively. Assays were started at different times and stopped together after 120 min by the addition of Endo-LysC (10 μl in assay buffer; final concentration 2 nM). Following incubation at room temperature for 15 min, the microplate was centrifuged at 500 rpm for 1 min and FLTs measured. All measurements were performed in duplicate.
For inhibitor titrations, compounds (5 μl) were preincubated with Set7/9 and peptide 13 (5 μl) for 10 min at room temperature prior to addition of SAM (10 μl). Controls containing no SAM or no inhibitor were included.

Test [6] addresses T5, PCAF (Homo sapiens, UniProt Q92831).
T5 construct: purchased Enzo Life Sciences
Kind of test: PCAF FLT protease protection assay. The class given is biochemical. To be noted: peptide 17 (1 μM), 125 nM PCAF, 2 h; read-out: KM (app) for AcCoA. The procedure: The dependence of the PCAF assay on AcCoA concentration was investigated. The assay was performed in a 384-well microplate at room temperature for 2 h in assay buffer (20 μl) using 125 nM PCAF and 1 μM peptide 17. Concentrations of AcCoA were varied from 25 μM-0.02 μM.
For AcCoA titrations, to wells containing varying concentrations of AcCoA (5 μl in assay buffer) was added 5 μl of peptide 17 in assay buffer followed by 10 μl of PCAF in assay buffer. […] Following a further 90 min incubation at room temperature, FLTs were measured. All measurements were performed in triplicate.

Test [7] addresses T5, PCAF. The following applies: literature (Poux et al. 2002); read-out: reported KM for AcCoA; cited from earlier work.

T5 sequence (Q92831 whole entry): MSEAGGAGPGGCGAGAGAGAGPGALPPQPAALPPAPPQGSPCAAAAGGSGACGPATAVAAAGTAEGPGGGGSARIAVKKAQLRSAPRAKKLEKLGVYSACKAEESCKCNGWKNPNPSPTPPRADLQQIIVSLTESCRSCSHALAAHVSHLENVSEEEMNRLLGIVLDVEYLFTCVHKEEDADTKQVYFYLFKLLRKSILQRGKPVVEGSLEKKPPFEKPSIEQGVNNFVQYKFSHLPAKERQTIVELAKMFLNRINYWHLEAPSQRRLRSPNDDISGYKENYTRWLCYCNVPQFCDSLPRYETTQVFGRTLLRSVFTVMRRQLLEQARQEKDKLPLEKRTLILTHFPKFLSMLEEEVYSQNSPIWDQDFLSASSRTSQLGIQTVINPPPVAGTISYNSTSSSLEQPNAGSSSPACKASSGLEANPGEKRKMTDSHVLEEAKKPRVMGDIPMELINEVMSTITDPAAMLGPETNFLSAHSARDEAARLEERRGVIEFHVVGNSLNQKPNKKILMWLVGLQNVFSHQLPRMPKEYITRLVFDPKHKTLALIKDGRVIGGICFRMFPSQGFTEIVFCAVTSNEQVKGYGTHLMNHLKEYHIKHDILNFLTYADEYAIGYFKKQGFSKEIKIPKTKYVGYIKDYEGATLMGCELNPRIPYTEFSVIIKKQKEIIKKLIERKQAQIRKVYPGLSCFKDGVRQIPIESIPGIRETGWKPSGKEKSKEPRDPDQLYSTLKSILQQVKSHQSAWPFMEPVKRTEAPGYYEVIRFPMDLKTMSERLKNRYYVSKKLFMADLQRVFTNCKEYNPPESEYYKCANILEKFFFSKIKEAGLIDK
T2 sequence (Q15910 whole entry): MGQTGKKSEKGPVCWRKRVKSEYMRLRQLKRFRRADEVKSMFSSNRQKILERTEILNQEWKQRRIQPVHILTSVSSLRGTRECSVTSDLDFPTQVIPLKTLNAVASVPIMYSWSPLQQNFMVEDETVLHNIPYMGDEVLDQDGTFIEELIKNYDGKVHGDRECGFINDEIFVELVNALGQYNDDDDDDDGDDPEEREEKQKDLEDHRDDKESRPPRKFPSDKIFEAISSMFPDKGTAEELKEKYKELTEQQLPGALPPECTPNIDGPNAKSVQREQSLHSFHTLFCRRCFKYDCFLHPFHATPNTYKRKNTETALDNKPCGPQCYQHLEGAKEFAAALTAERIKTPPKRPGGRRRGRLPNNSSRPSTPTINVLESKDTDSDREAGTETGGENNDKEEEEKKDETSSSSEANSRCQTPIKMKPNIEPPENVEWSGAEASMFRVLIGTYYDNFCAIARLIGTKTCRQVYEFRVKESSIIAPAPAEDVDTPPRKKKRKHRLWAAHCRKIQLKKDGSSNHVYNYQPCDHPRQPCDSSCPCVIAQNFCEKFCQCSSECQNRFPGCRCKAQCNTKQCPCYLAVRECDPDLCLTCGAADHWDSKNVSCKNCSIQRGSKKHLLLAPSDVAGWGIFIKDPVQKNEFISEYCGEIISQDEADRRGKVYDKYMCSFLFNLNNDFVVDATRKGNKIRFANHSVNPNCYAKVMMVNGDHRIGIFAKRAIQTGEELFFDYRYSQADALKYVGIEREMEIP
T2 sequence (O75530 whole entry partner): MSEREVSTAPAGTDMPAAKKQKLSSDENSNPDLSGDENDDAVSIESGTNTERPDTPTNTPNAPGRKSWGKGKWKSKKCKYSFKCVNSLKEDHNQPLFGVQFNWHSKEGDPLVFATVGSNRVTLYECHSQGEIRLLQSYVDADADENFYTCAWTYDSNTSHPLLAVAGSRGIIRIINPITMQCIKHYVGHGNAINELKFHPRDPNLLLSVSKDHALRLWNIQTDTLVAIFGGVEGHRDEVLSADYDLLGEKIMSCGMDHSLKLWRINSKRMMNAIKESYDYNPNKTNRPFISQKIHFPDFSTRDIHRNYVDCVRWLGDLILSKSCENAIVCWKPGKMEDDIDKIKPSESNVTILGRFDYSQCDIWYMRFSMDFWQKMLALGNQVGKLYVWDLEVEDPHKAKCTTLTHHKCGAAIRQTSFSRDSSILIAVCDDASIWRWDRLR
T2 sequence (Q15022 whole entry partner): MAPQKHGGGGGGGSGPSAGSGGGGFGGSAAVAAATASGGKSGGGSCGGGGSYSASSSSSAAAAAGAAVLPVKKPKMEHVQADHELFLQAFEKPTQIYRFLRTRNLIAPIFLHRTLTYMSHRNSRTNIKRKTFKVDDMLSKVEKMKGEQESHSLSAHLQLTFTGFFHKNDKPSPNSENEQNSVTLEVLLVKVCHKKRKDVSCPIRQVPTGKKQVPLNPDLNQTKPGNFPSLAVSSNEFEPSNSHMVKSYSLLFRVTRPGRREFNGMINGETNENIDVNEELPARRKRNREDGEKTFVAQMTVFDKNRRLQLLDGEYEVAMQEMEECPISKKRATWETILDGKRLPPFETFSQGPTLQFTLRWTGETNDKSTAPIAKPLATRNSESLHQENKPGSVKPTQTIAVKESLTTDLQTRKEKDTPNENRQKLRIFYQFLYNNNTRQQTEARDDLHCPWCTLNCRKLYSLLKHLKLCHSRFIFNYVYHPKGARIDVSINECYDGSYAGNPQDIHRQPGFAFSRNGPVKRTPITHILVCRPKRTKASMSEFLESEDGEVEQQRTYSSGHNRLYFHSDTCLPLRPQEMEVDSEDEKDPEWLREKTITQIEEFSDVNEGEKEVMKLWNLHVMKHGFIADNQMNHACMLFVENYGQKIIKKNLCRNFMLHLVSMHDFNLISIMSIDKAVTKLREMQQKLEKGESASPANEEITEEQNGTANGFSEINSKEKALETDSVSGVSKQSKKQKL
T2 sequence (Q09028 whole entry partner): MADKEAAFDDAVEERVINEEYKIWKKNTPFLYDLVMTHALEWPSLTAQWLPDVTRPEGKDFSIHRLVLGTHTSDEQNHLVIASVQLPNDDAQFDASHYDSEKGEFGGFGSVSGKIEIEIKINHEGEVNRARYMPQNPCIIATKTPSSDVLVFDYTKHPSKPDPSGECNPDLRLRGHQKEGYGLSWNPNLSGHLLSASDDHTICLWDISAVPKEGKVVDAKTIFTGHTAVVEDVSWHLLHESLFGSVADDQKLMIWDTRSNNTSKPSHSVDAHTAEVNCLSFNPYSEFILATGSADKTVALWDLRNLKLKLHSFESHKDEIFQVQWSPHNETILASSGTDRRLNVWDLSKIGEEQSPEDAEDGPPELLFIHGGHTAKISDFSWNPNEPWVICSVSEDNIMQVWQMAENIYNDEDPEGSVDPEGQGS
T2 sequence (Q6ZN18 whole entry partner): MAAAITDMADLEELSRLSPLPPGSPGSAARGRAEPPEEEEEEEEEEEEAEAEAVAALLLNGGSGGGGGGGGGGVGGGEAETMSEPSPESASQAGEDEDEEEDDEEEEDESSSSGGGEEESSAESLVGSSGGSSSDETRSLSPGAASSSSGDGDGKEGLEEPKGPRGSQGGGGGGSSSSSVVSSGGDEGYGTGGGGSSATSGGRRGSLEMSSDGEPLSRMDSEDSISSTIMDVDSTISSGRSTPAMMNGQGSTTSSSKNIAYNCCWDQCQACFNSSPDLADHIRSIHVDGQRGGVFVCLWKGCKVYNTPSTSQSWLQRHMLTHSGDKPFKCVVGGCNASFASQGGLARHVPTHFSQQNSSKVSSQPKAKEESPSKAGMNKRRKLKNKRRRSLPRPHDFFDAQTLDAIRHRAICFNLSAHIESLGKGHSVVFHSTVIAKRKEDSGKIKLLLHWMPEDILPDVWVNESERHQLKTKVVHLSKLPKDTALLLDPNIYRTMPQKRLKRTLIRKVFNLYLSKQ

For “9AA-ATGGVK^36(Me)K(Me)PHRYW-CONH2 [peptide 10]”, the “increase in FLT following protease treatment after reaction with JHDM1A” value in test [1] is reported as “over 1 ns”.
Take `C[S+](CC[C@H](N)C(=O)[O-])C[C@H]1O[C@@H](n2cnc3c(N)ncnc32)[C@H](O)[C@@H]1O` (stereo partly shown) [SAM, S-adenosylmethionine, reference compound]: the Michaelis-Menten constant (Km) in test [2] was 0.71 µM; in test [3], 0.21 to 0.3 µM; in test [4], 3 to 11 µM; in test [5], 0.5 µM.
For the compound `CC(=O)SCCNC(=O)CCNC(=O)[C@H](O)C(C)(C)COP(=O)(O)OP(=O)(O)OC[C@H]1O[C@@H](n2cnc3c(N)ncnc32)[C@H](O)[C@@H]1OP(=O)(O)O` [AcCoA, acetyl co-enzyme A], the Km is 1.2 µM in test [6] and 1.6 µM in test [7].

As usually defined, the Km is the substrate concentration at which the rate is half of its maximum.

The record behind these values is patent publication US20140080162A1, “FLUORESCENCE LIFETIME EPIGENETICS ASSAYS” (ALMAC SCIENCES (SCOTLAND) LIMITED, priority 2011, published 2014).
